Values joined by “and” are separate entries in the source; they are usually repeats but may differ in a detail not shown here. Identical values can stand only once. “Also recorded” adds a separate entry of the source. One block for each compound: values may come before it.
Columns and labels:
MMP-1 = molecular target: T1, MMP-1 (Homo sapiens, UniProt P03956); experiment: In vitro MMP-1 inhibition assay (Abcam kit ab139443); assay type: biochemical; conditions: for MMP-1 inhibition (in words): 500 nM, Fig. 3A
T1 construct: purchased Abcam ab139443
T1 sequence (P03956 100-269 limits assumed): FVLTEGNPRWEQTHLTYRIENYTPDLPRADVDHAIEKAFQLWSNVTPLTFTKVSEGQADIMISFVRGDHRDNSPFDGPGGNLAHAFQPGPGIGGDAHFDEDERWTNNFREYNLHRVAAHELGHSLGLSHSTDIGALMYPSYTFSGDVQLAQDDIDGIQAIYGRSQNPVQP
Method: (§1) Test inhibitors were incubated with MMP enzymes and assay buffer at 37 °C for 30 min. Enzyme reaction was initiated by adding substrate, and MMP activity was measured by monitoring optical density (OD) at 412 nm for 20 min at 1-min intervals. The residual activity (%) was calculated as: residual activity = (Vinhibitor/Vcontrol) × 100. The reaction velocity (V) in OD/min were determined by the slope of a line fit to the linear portion of the measured values.

MMP-9 = molecular target: T2, MMP-9 (Homo sapiens, UniProt P14780); experiment: Zymogram assay, MMP-9 in HaCaT cell conditioned media; assay type: biochemical; conditions: keratinocyte-conditioned media; 50 nM developing phase and 500 nM 48 h, Fig. 4B and 4D
T2 construct: endogenous in cells; host or cells: HaCaT keratinocytes (conditioned medium)

NHF cells = experiment: Gelatin degradation assay (fluorescent gelatin, NHF cells); assay type: cell-based, human; conditions: 1 μM, four days, fluorescent-gelatin-coated plates
Method: Gelatin digestion was assessed using the QCM™ Gelatin Invadopodia Assay (#ECM670) (Sigma-Aldrich, USA). Plates were first coated with poly-L-lysine, activated with glutaraldehyde, and then coated with fluorescein-labelled gelatin. NHF cells were seeded onto the fluorescent gelatin-coated plates and incubated for 4 days. After incubation, the cells were fixed with formaldehyde and stained with DAPI for normalization based on cell number. Fluorescent gelatin levels were measured by detecting fluorescent intensity at an excitation wavelength of 492 nm and an emission wavelength of 518 nm using a Bio Tek Synergy H1 fluorescence reader (Agilent Technologies, USA). The residual gelatin (RG) was calculated by subtracting the fluorescent value of the wells with seeded cells from the values of wells without cells. This was normalized using the DAPI fluorescence to account for cell numbers per well. Gelatin degradation (%) was determined as: Gelatin degradation = (RGinhibitor/RGcontrol) × 100.

MMP-2 = molecular target: T3, MMP-2 (Homo sapiens, UniProt P08253); experiment: In vitro MMP-2 inhibition assay (Abcam kit ab139446); assay type: biochemical; conditions: for Selectivity of inhibition, MMP-2 over MMP-1 (in words): tested at 500 nM for MMP-1 and 50 nM for MMP-2; for IC50: apparent IC50, concentration-dependent inhibition, Fig. 2B; for MMP-2 inhibition (in words): 50 nM, Fig. 3A
T3 construct: purchased Abcam ab139446
Method: as §1

T2 sequence (P14780 94-707): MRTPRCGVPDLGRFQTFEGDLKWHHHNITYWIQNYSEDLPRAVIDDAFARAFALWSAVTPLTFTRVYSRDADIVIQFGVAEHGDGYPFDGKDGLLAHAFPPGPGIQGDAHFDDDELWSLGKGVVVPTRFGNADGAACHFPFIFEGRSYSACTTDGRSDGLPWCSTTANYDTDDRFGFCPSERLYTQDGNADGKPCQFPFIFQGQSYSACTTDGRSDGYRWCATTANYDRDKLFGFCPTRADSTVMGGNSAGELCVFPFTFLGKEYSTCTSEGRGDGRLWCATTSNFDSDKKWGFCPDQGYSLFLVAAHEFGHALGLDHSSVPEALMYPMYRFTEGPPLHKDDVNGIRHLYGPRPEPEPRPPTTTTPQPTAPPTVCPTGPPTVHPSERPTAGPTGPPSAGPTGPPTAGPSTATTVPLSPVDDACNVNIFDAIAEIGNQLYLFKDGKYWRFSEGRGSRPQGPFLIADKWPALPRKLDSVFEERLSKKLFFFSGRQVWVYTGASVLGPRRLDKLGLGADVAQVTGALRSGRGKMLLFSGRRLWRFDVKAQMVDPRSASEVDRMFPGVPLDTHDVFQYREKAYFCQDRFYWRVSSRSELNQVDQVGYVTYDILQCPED
T3 sequence (P08253 110-465 limits assumed): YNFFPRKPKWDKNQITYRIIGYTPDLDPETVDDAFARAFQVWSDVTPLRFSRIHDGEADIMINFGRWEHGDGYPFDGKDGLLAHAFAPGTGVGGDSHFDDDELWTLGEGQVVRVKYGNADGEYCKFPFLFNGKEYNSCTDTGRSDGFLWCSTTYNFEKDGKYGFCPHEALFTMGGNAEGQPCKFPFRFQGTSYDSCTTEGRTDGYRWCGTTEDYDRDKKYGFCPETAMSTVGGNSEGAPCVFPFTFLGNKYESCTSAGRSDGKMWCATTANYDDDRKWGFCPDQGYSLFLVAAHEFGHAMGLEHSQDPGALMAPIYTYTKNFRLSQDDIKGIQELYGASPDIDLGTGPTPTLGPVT

MMP-1 inhibition (in words) (MMP-1): maintained MMP-1 inhibition
Compound: O=C(NO)C1CCCCN1S(=O)(=O)c1ccccc1 (centres unmarked) [Compound 1ac, N-hydroxy-1-(phenylsulfonyl)piperidine-2-carboxamide]

Compound: O=C(NO)C1CCCCN1S(=O)(=O)c1ccc(-c2ccccc2)cc1 (centres unmarked) [Compound 1ad, 1-([1,1'-biphenyl]-4-ylsulfonyl)-N-hydroxypiperidine-2-carboxamide]
MMP-9 inhibition, zymogram (in words) (MMP-9): effectively inhibited both MMP-2 and MMP-9
Gelatin degradation per cell (in words) (NHF cells): statistically significant reductions

Compound: CCCCOc1ccc(S(=O)(=O)N2CCCCC2C(=O)NO)cc1 (centres unmarked) [Compound 1af, 1-((4-butoxyphenyl)sulfonyl)-N-hydroxypiperidine-2-carboxamide]
MMP-9 inhibition, zymogram (in words) (MMP-9): effectively inhibited both MMP-2 and MMP-9
Gelatin degradation per cell (in words) (NHF cells): statistically significant reductions

Selectivity of inhibition, MMP-2 over MMP-1 (in words) (MMP-2): selective inhibition of MMP-2
Compound: Cc1ccc(S(=O)(=O)N2CCCCC2C(=O)NO)cc1 (centres unmarked) [Compound 1aj, N-hydroxy-1-tosylpiperidine-2-carboxamide]

MMP-1 inhibition (in words) (MMP-1): weak MMP-1 inhibition
IC50 (MMP-1; apparent IC50, concentration-dependent inhibition, Fig. 2B): 188 nM
IC50 (MMP-2): 5.1 nM and < 10 nM
Selectivity of inhibition, MMP-2 over MMP-1 (in words) (MMP-2): selectively inhibited MMP-2 over MMP-1
Compound: CC(C)C(NS(=O)(=O)c1ccc(-c2ccccc2)cc1)C(=O)NO (centres unmarked) [Compound 1b, 2-([1,1'-biphenyl]-4-sulfonamido)-N-hydroxy-3-methylbutanamide]

Compound: CCCCOc1ccc(S(=O)(=O)NC(C(=O)NO)C(C)C)cc1 (centres unmarked) [Compound 1d, 2-((4-butoxyphenyl)sulfonamido)-N-hydroxy-3-methylbutanamide]
IC50 (MMP-2): 8.1 nM and < 10 nM
Selectivity of inhibition, MMP-2 over MMP-1 (in words) (MMP-2): selectively inhibited MMP-2 over MMP-1; also recorded: strong selectivity for MMP-2

Compound: CCCCOc1ccc(S(=O)(=O)NC(CC(C)C)C(=O)NO)cc1 (centres unmarked) [Compound 1j, 2-((4-butoxyphenyl)sulfonamido)-N-hydroxy-4-methylpentanamide]
IC50 (MMP-2): 7.8 nM and < 10 nM
Selectivity of inhibition, MMP-2 over MMP-1 (in words) (MMP-2): selectively inhibited MMP-2 over MMP-1; also recorded: strong selectivity for MMP-2

MMP-2 inhibition (in words) (MMP-2): lower inhibitory activity against MMP-2
Compound: O=C(NO)C(Cc1ccccc1)NS(=O)(=O)c1ccc(-c2ccccc2)cc1 (centres unmarked) [Compound 1n, 2-([1,1'-biphenyl]-4-sulfonamido)-N-hydroxy-3-phenylpropanamide]

Compound: CCCCOc1ccc(S(=O)(=O)NC(Cc2ccccc2)C(=O)NO)cc1 (centres unmarked) [Compound 1p, 2-((4-butoxyphenyl)sulfonamido)-N-hydroxy-3-phenylpropanamide]
MMP-2 inhibition (in words) (MMP-2): lower inhibitory activity against MMP-2

MMP-1 inhibition (in words) (MMP-1): weaker MMP-1 inhibition
IC50 (MMP-2): 18.9 nM
Selectivity of inhibition, MMP-2 over MMP-1 (in words) (MMP-2): selectively inhibited MMP-2 over MMP-1
Compound: O=C(NO)C1CCCN1S(=O)(=O)c1ccc(-c2ccccc2)cc1 (centres unmarked) [Compound 1t, 1-([1,1'-biphenyl]-4-ylsulfonyl)-N-hydroxypyrrolidine-2-carboxamide]

Compound: CCCCOc1ccc(S(=O)(=O)N2CCCC2C(=O)NO)cc1 (centres unmarked) [Compound 1v, 1-((4-butoxyphenyl)sulfonyl)-N-hydroxypyrrolidine-2-carboxamide]
IC50 (MMP-2): 32.6 nM
Selectivity of inhibition, MMP-2 over MMP-1 (in words) (MMP-2): selectively inhibited MMP-2 over MMP-1

Compound: CC(=NO)c1ccc(S(=O)(=O)N2CCCCC2C(=O)NO)cc1 (centres unmarked) [Compound 4an, N-hydroxy-1-((4-(1-(hydroxyimino)ethyl)phenyl)sulfonyl)piperidine-2-carboxamide]
MMP-9 inhibition, zymogram (in words) (MMP-9): effectively inhibited both MMP-2 and MMP-9
Gelatin degradation per cell (in words) (NHF cells): statistically significant reductions

Reference: PMC11876007, “Design and Synthesis of Hydroxamate-Based Matrix Metalloproteinase-2 Inhibitors for Anti-Photoaging” (Journal of Microbiology and Biotechnology, 2025)
